How the values were obtained:
Type in all cases: cell-based
[1] = system: CpG dinucleotides of interest in PCSK6 gene; test: CpG methylation status analysis by pyrosequencing; settings: DU145 and LNCaP cells, 72 h, refreshed every 24 h
Excerpt: FIG. 5 illustrates decitabine (5-aza-dC) efficiency at hypomethylating CpG dinucleotides of interest in PCSK6 gene, showing in (A) schematic representation of the 3′ extremity of PCSK6 gene, putting emphasis on the coding and non-coding region between exon 24, exon 25 and exon 25 alt, wherein ChiP-Seq enriched regions as viewed in UCSC genome browser ChiP-Seq are represented as ovals, each CpG nucleotide analyzed is highlighted, and the inversion of 5′ and 3′ ends is shown for reading purposes; (B) DU145 and LNCaP cells (C) were treated with decitabine at the indicated concentrations for 72 h (medium and decitabine being refreshed every 24 h) and DNA was extracted and used for CpG methylation status analysis using pyrosequencing.
DNA was purified from 14 pairs of tumoral and non-tumoral prostate biopsies and from DU145 and LNCaP cells treated with 5axa-dC using DNeasy Blood & Tissue Kit (Qiagen, #69504). Concentration, yield and purity of gDNA samples were measured using spectrometry. All samples provided good gDNA yield and quality (A260/A280 ratio between 1.7 and 2.0). Gold standard pyrosequencing technology was used to determine base-specific cytosine methylation levels located upstream of guanines (sequence called CpG dinucleotides). […] Overall, nine potentially methylated cytosines (in a CpG dinucleotides context) were analyzed at the PCSK6 gene locus.

[2] = system: CTCF binding to PCSK6 alternative terminal exon regions; test: Chromatin immunoprecipitation with anti-CTCF antibody; settings: DU145 and LNCaP cells treated for 72 h
Method: Cells were cultured in 150 mm culture dishes and submitted to crosslinking through the addition of formaldehyde to a final concentration of 1.1% for 10 min at room temperature followed by a quenching step with 125 mM glycine for another 5 min. Cells were washed twice with ice-cold PBS, collected using a cell scraper and frozen in liquid nitrogen and stored at −80° C. until analyses. Cell pellets were resuspended in HEPES 10 mM pH 6.5; 0.5 mM EDTA, 0.25% Triton-X-100 and centrifugated at 4,000 rpm at 4° C. for 5 min. Pellet was further lysed by adding 200 μL of Tris 50 mM pH 8.1; 10 mM EDTA, 1% SDS and passing 3 times through a 28 G syringe. Cell preparations were incubated 1 h at 4° C. with constant agitation and nuclei were pelleted by a centrifugation at 5,000 rpm. […] DNA fragmentation was routinely assessed by agarose gel electrophoresis using 10 μL of the fragmented DNA solution (beforehand treated with RNase A 10 μg/mL for 10 min). For each IP, 350 μg of DNA were used (based on concentration determined using the OD260 nm) and 5% of the corresponding volumes were kept aside as Input DNA for quantitation. […] 3 μL of the purified DNA were further used for qPCR analyses and quantitation was established using the 1% input as a standard.

LNCaP cells = test: PACE4 exon 25 splicing index (PACE4-altCT/PACE4-FL mRNA) by qPCR; settings: treated for 72 h
Method: (§1) For actinomycin-D (Sigma Aldrich) or cycloheximide (Sigma Aldrich) treatments, compounds were first dissolved in DMSO, and diluted to a final concentration of 5 μg/mL and 40 μg/mL in the culture medium respectively. Actinomycin-D treatment never exceeded 8 h, which is the time-frame prior to early apoptosis induction. For treatments wit 5-aza-2′-deoxy-cytidine (Sigma Aldrich), compound was first dissolved in DMSO and further diluted prior to addition to cell culture medium, which was changed every day and replaced with fresh one containing the compound for a total exposure of 72 h. […]
(§2) 1 μg RNA was DNase I-treated (Invitrogen), reverse-transcribed using Superscript II reverse transcriptase (Invitrogen), and RNase H-treated (Ambion, Austin, Tex.) before quantitative PCR performed using a Stratagene Mx3005P instrument. Relative expression levels were calculated using β-actin as a reference gene with the formula (1+amplification efficiency)^−(CT). […]

DU145 cells = test: as above; settings: DU145, treated for 72 h
Method: as §1, §2

PACE4-FL = target: T1, PACE4-FL (Homo sapiens, UniProt P29122); test: PACE4 secretion assay, displacement by heparin; settings: increasing doses
T1 construct: V5 (C); His (C); expressed in transfected cells
T1 sequence (P29122 150-969): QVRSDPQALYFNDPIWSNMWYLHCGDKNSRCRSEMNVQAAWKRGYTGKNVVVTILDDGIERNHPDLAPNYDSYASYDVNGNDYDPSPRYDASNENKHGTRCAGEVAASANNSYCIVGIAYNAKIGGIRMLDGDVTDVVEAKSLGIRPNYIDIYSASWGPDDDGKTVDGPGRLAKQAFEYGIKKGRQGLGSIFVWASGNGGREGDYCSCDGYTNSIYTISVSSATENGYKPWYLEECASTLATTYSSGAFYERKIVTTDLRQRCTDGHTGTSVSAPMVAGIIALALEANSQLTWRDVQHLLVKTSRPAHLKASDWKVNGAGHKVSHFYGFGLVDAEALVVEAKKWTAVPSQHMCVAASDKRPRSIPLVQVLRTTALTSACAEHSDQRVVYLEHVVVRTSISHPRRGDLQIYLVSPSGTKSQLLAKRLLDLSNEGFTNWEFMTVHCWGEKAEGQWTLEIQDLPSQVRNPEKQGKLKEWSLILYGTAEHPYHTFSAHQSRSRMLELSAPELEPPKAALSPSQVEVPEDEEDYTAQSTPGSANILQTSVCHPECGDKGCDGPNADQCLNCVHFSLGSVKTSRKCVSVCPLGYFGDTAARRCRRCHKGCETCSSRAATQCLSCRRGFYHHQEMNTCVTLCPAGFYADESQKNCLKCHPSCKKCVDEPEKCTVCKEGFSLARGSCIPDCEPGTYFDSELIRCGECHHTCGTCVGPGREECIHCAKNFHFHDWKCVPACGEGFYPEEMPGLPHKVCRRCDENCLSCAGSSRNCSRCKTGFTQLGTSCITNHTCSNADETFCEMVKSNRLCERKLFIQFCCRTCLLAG
Excerpt: (§3) The first major distinction observed was the lack of secretion of PACE4-altCT accompanied with intracellular retention when compared to PACE4-FL which was efficiently secreted in the medium (FIGS. 7B and C). This observation correlated with the distinct cell distribution observed for each isoforms in IHC, i.e. the PACE4-FL being more accumulated at the membrane/extracellular surface compared to PACE4-altCT being restricted to the vesicular intracellular compartment (FIG. 3D). PACE4, at least PACE4-FL, is known to be secreted in the medium and to be retained in the extracellular matrix through the binding to heparan sulfate proteoglycans by its cysteine-rich domain and to be displaceable by heparin.
(§4) For PACE4 secretion assays, cells were plated at equal densities in 6-well plates for 24 h in complete medium. 24 h later, the medium was replaced by the minimal volume required of fresh culture medium (600 μL without FBS) and the cells were either allowed to secrete for the indicated time (for secretion kinetics) or (for inhibitor treatments) allowed to secrete for an additional 24 h in the presence of the indicated concentrations of agents (heparin (Sandoz, Niirnberg, Germany), 2-bromopalmitate (Sigma Aldrich), FTI-277 (Sigma Aldrich), GGTI-2133 (Santa Cruz Biotechnology Inc., Santa Cruz, Calif., USA)

PACE4-altCT = target: T2, PACE4-altCT (Homo sapiens, UniProt P29122); test: PACE4 secretion assay, displacement by heparin; settings: increasing doses
T2 construct: V5 (C); His (C); expressed in transfected cells
T2 sequence (P29122 with tags, fused parts or gaps limits assumed): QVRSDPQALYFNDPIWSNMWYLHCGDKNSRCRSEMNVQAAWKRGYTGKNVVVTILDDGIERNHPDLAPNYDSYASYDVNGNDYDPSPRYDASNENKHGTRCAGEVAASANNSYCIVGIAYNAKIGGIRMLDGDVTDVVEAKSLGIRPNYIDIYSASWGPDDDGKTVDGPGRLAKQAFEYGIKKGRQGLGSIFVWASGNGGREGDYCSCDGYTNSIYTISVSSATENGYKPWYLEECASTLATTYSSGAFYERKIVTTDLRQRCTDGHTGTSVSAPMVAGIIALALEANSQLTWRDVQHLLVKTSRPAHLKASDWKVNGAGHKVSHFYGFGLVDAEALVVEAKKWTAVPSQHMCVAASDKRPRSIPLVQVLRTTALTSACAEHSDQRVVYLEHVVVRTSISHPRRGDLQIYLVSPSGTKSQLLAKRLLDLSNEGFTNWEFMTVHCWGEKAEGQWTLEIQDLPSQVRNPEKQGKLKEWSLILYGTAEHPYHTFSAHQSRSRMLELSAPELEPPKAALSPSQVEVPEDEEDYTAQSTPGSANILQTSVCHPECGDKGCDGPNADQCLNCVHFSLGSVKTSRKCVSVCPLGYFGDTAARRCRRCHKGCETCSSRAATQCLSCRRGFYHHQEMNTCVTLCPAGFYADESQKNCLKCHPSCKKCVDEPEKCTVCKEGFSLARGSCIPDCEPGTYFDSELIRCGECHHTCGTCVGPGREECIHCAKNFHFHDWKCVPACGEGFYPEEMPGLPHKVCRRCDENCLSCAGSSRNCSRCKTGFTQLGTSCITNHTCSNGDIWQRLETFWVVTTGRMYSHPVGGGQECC
Excerpt: as §3, §4

Compound | CpG hypomethylation [1] | CTCF ChIP enrichment of intra-exonic and upstream region [2] | change of splicing index (LNCaP cells) | change of splicing index (DU145 cells) | displacement into the medium by heparin (PACE4-FL) | displacement into the medium by heparin (PACE4-altCT)
Nc1ncn([C@H]2C[C@H](O)[C@@H](CO)O2)c(=O)n1 [decitabine, 5-aza-2′-deoxycytidine] | sensitive to decitabine in a dose-dependent manner | clear enrichment | increased in a dose-dependent manner | increased in a dose-dependent manner |  | 
heparin |  |  |  |  | increased amount in the medium | could not be displaced

— patent US20190316211A1, “ONCOGENIC ALTERNATIVE SPLICING SWITCH OF PACE4 IN CANCER” (SOCIETE DE COMMERCIALISATION DES PRODUITS DE LA RECHERCHE …, priority 2016, published 2019)
